# Data taken from patent publication US20130237496A1, “ACTIVE INGREDIENT OBTAINED FROM CICHORIUM INTYBUS FOR ACTING ON THE BARRIER FUNCTION OF THE SKIN THAT IS SIMILAR TO THAT OF VITAMIN D” (SOCIETE INDUSTRIELLE LIMOUSINE D'APPLICATION BIOLOGIQUE, priority 2012, published 2013).
# Key:
# Type in all cases: cell-based
# [1] = test system: Kruppel-like factor 4 (KLF4); test: Expression of RNAm by quantitative PCR in human keratinocytes of aged donors: KLF4; conditions: 10^−7M, 48 hours
# Excerpt: (§1) The object of this study is to evaluate the effect of a Cichorium intybus root hydrolyzate comprising oligofructosans (Example 1) on its capacity to modulate the expression of the RNAm coding for epidermal differentiation proteins: • Kruppel-like factor 4 (KLF4): transcription factor involved in the terminal differentiation of keratinocytes, • Cytokeratin 1 (CK1): components of intermediate keratin filaments, • Involucrin: protein of the cornified envelope, • Cystatin E/M: Inhibitor of lysosomal protease cysteines that are involved in the differentiation of keratinocytes and desquamation. • Kallikrein 5 (KLK5 or SCTE): stratum corneum tryptic enzyme involved in desquamation.
# (§2) The study was done by quantitative PCR on normal human keratinocytes obtained from aged donors (age of greater than 60 years), according to the operating procedure described below.
# (§3) On D0, the human keratinocytes of aged donors are inoculated and incubated at 37° C.
# (§4) The cells are then incubated for 48 hours at 37° C.
# (§5) On D4, the cells are recovered, and the total RNA are extracted. The RNA are reverse-transcripts, and the complementary DNA that are obtained are analyzed by quantitative PCR (quantitative polymerase chain reaction).
# (§6) The quantification of the incorporation of fluorescence is measured continuously using a thermal cycler, and the relative quantification is carried out using software.
# Involucrin = test: Expression of RNAm by quantitative PCR in normal human keratinocytes: involucrin; conditions: aged human keratinocytes; 10^−7M; 48 hours
# Excerpt: (§7) The study consists in comparing the effect of these different fractions on the expression of the involucrin and the KLK5 by quantitative PCR on normal human keratinocytes, with the result obtained for the active ingredient according to the invention at 1%. The test protocol is the one described in Item II. […]
# (§8) The study was done by quantitative PCR on normal human keratinocytes obtained from aged donors (age of greater than 60 years), according to the operating procedure described below. […]
# as §5, §6
# [2] = test system: Aged reconstructed epidermis; test: Thickness of reconstructed epidermis from aged human keratinocytes (HE coloring)
# Excerpt: (§9) The object of this study is to evaluate the capacity of a Cichorium intybus root hydrolyzate comprising oligofructosans to promote the construction of a stratified and functional epidermis starting from aged human keratinocytes obtained by successive replications. First, the young human keratinocytes (passage 1: […] Next, the reconstructed epidermis (RE) is obtained after the young or aged human keratinocytes are cultivated. On D12 and D19, the RE are recovered, fixed, dehydrated and included in paraffin. Sections (4 μm) are then made using a microtome. Next, an HE coloring, and then an immunohistological marking of the filaggrin, terminal differentiation marker, are carried out. The display is produced on a microscope coupled with an image analysis system: • The thickness of the epidermis (living cell layers) is measured on the histological sections after the HE coloring, • The synthesis of the filaggrin is proportional to the intensity of the fluorescence (green color) that is present in the reconstructed epidermis.
# filaggrin = test: Synthesis of filaggrin in reconstructed epidermis from aged human keratinocytes (immunohistological marking)
# Excerpt: as §9
# [3] = test system: Kallikrein 5 (KLK5 or SCTE); test: Expression of RNAm by quantitative PCR in normal human keratinocytes: KLK5; conditions: aged human keratinocytes; 10^−7M; 48 hours
# Excerpt: as §7, §8, §5, §6
# Cystatin E/M = test: Expression of RNAm by quantitative PCR in human keratinocytes of aged donors: cystatin E/M; conditions: 10^−7M, 48 hours
# Excerpt: as §1, §2, §3, §4, §5, §6
# Cytokeratin 1 (CK1) = test: Expression of RNAm by quantitative PCR in human keratinocytes of aged donors: cytokeratin 1; conditions: 10^−7M, 48 hours
# Excerpt: as §1, §2, §3, §4, §5, §6
smiles,measurement,setting,value
"C=C1/C(=C\C=C2/CCC[C@]3(C)[C@@H]([C@H](C)CCCC(C)(C)O)CC[C@@H]23)C[C@@H](O)C[C@@H]1O [Calcitriol, calcitriol]",RNAm Level/Control (%) KLF4,[1],+25%
same,RNAm Level/Control (%) Involucrin,Involucrin,+42%
same,Thickness of the Epidermis (μm),"[2]; D12, 10^−8M",37.8 μm
same,Thickness of the Epidermis (μm),"[2]; D19, 10^−8M",58.6 (FIG. 1c) μm
same,Synthesis of Filaggrin (×10^4 UA),"filaggrin; D12, 10^−8M",116 ×10^4 UA
same,Synthesis of Filaggrin (×10^4 UA),"filaggrin; D19, 10^−8M",795 (FIG. 2c) ×10^4 UA
same,RNAm Level/Control (%) KLK5,[3],+26%
same,RNAm Level/Control (%) Cystatin E/M,Cystatin E/M,+65%
same,RNAm Level/Control (%) Cytokeratin 1,Cytokeratin 1 (CK1),0%
